Assay results: ChEMBL document CHEMBL1136584, “Synthesis and preliminary biological evaluation of 6-O-[11C]-[(methoxymethyl)benzyl]guanines, new potential PET breast cancer imaging agents for the DNA repair protein AGT” (Bioorg Med Chem Lett, 2003)

Experiments:
[1] = molecular target: T1, Methylated-DNA--protein-cysteine methyltransferase (Homo sapiens) (UniProt P16455); experiment: In vitro inhibitory activity of compound against AGT (O6-alkylguanine-DNA alkyltransferase) at a concentration of 10 uM using breast cancer MCF cells, expressed as Fmol O6-MeG removed/mg of protein; type: cell-based
T1 sequence (whole entry): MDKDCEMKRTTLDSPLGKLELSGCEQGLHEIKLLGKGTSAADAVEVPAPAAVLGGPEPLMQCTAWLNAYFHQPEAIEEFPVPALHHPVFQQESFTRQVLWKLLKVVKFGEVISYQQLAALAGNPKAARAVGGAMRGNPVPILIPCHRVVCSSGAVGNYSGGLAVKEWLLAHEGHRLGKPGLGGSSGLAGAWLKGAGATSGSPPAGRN

[2] = molecular target: T1, Methylated-DNA--protein-cysteine methyltransferase (Homo sapiens); experiment: In vitro inhibitory activity of compound against AGT (O6-alkylguanine-DNA alkyltransferase) at a concentration of 50 uM using breast cancer MCF cells, expressed as Fmol O6-MeG removed/mg of protein; type: cell-based
[3] = molecular target: T1, Methylated-DNA--protein-cysteine methyltransferase (Homo sapiens); experiment: In vitro inhibitory activity of compound against AGT (O6-alkylguanine-DNA alkyltransferase) at a concentration of 0.1 uM using breast cancer MCF cells, expressed as Fmol O6-MeG removed/mg of protein; type: cell-based
[4] = molecular target: T1, Methylated-DNA--protein-cysteine methyltransferase (Homo sapiens); experiment: In vitro inhibitory activity of compound against AGT (O6-alkylguanine-DNA alkyltransferase) at a concentration of 1 uM using breast cancer MCF cells, expressed as Fmol O6-MeG removed/mg of protein; type: cell-based
[5] = molecular target: T1, Methylated-DNA--protein-cysteine methyltransferase (Homo sapiens); conditions: MCF7; 1 uM
Description: In vitro inhibitory activity of compound against AGT (O6-alkylguanine-DNA alkyltransferase) at a concentration of 1 uM using breast cancer MCF-7 cells, expressed as Fmol O6-MeG removed/mg of protein

[6] = molecular target: T1, Methylated-DNA--protein-cysteine methyltransferase (Homo sapiens); conditions: MCF7; 50 uM
Description: In vitro inhibitory activity of compound against AGT (O6-alkylguanine-DNA alkyltransferase) at a concentration of 50 uM using breast cancer MCF-7 cells, expressed as Fmol O6-MeG removed/mg of protein

[7] = molecular target: T1, Methylated-DNA--protein-cysteine methyltransferase (Homo sapiens); conditions: MCF7; 10 uM
Description: In vitro inhibitory activity of compound against AGT (O6-alkylguanine-DNA alkyltransferase) at a concentration of 10 uM using breast cancer MCF-7 cells, expressed as Fmol O6-MeG removed/mg of protein

[8] = molecular target: T1, Methylated-DNA--protein-cysteine methyltransferase (Homo sapiens); conditions: MCF7; 0.1 uM
Description: In vitro inhibitory activity of compound against AGT (O6-alkylguanine-DNA alkyltransferase) at a concentration of 0.1 uM using breast cancer MCF-7 cells, expressed as Fmol O6-MeG removed/mg of protein

SMILES | Activity ((fM of O6-MeG removed) (mg of protein)-1) [1] | Activity ((fM of O6-MeG removed) (mg of protein)-1) [2] | Activity ((fM of O6-MeG removed) (mg of protein)-1) [3] | Activity ((fM of O6-MeG removed) (mg of protein)-1) [4] | Activity ((fM of O6-MeG removed) (mg of protein)-1) [5] | Activity ((fM of O6-MeG removed) (mg of protein)-1) [6] | Activity ((fM of O6-MeG removed) (mg of protein)-1) [7] | Activity ((fM of O6-MeG removed) (mg of protein)-1) [8]
COCc1ccccc1COc1[nH]c(N)nc2ncnc1-2 | 2490 | 660 | 2340 | 2300 |  |  |  | 
Nc1nc(OCc2ccccc2)c2nc[nH]c2n1 |  |  |  |  | 164 | 19 | 50 | 2390
COCc1cccc(COc2[nH]c(N)nc3ncnc2-3)c1 | 21 | 15 | 1640 | 1140 |  |  |  | 
COCc1ccc(COc2[nH]c(N)nc3ncnc2-3)cc1 | 35 | 58 | 457 | 292 |  |  |  | 
